Results on one molecule are retold here after ChEMBL document CHEMBL1133235, “Kinetic characterisation of ene-diol-based inhibitors of alpha-amylase” (Bioorg Med Chem Lett, 2000).

The assay deals with alpha-amylase (Hordeum vulgare). The assay can be described thus: Percent inhibition of Alpha-amylase activity was determined at 5 mM. The conditions noted are these: malt.

By inhibition is commonly meant the share of the control response that was lost under treatment. Read a low inhibition as a response near the control. Molecule `O=C(O)/C(O)=C(\O)C(=O)O` displayed an inhibition of 92%.
